Laboratory results: paper PMC12111648, “New Dimethoxyaryl-Sesquiterpene Derivatives with Cytotoxic Activity Against MCF-7 Breast Cancer Cells: From Synthesis to Topoisomerase I/II Inhibition and Cell Death Mechanism Studies” (International Journal of Molecular Sciences, 2025)
“Also recorded” adds a separate entry of the source.

Tests used:
Assay type in all cases: cell-based, human
MCF-7 cells [1] = assay: MTT cytotoxicity assay on MCF-7 cells; conditions: for IC50: Homo sapiens, MCF7, MTT, 48 h incubation, IC50 ± SD, three experiments in triplicate; for Selectivity Index (SI): SI = IC50 on MCF-10 cells/IC50 on MCF-7 cells
Procedure: (§1) In this study, we wondered whether semi-synthetic compounds have potential antitumoral properties against BC. Therefore, we were interested in investigating the effect of the compounds on the MCF-7 cell line. Firstly, we studied the effect on cell viability using a colorimetric MTT assay, which was performed to quantify the cytotoxic activity; each compound was evaluated at different concentrations (500−100−20−4−0.8−0.16−0.032−0 µM). Daunorubicin was also used as a positive control for comparison with a reference drug. […] Although the MCF-10 cell line provides a useful selectivity model, it may not fully represent the varying sensitivities of different normal cell types within a multicellular organism. The SI value indicates the ratio of toxicity in mammalian host cells to that in a tumoral cell. The data obtained in response to different concentrations of compounds were used to calculate the IC50 and corresponding SI values, as shown in Table 1.
(§2) The American Type Culture Collection (Rockville, MD, USA) supplied the following experimental cell lines: MCF-7, a human breast cancer cell line, and MCF-10A, a human epithelial breast cell line (ATCC N° CRL-10317). Both cell lines were grown in DMEM-F12 medium containing 10% FCS, 100 U/mL penicillin, 100 μg/mL streptomycin, and 1 mM glutamine. The cells were seeded at a concentration of 100 μL per well at a plating density of 3 × 10^3 cells/well and incubated for 24 h at 37 °C under 5% humidified CO2 to enable attachment. The cells were then treated with varying concentrations of synthesized compounds for […] under the same conditions. The compound stock solution was prepared in DMSO, and the final concentration of DMSO was kept at 0.1%. Control cultures were treated with only 1% ethanol.
(§3) Cells from the MCF-7 and MCF-10 lines were seeded into 96-well plates at a density of 1 × 10^4 per well. After 24 h, the compounds were added at increasing concentrations (500–100–20-4–0.8–0.16–0.032–0 µM), and the cells were incubated at 37 °C in a humidified 5% CO2/95% air mixture for 48 h. Following incubation, the cells were washed twice with PBS, and 100 μL of 0.5 mg/mL MTT solution was added to each well. After 2 h of incubation, the MTT solution was removed, and the formazan crystals were dissolved in 50 μL of DMSO per well. Absorbance was then measured at 570 nm using a microplate ELISA reader. IC50 values, determined from three independent experiments conducted in triplicate, were calculated using SigmaPlot® software (version 11.0). The selectivity index (SI) of each compound in each cell line was determined by calculating the ratio of the IC50 values for MCF-10 and cancer cell lines. Compounds were considered selective if SI values were equal to or greater than 3 [46].

MCF-10 cells = assay: MTT cytotoxicity assay on non-tumoral MCF-10 cells; conditions: Homo sapiens, MCF10, 48 h incubation, IC50 ± SD, three experiments in triplicate
Procedure: as §1, §2, §3

MCF-7 cells [2] = assay: Intracellular ROS generation (DCFH2-DA, flow cytometry); conditions: MCF-7, compounds at respective IC50, 24 h, versus control
Procedure: An increase in intracellular ROS may be one of the factors that contribute to the cytotoxicity of certain compounds in cancer cell lines. In fact, ROS and mitochondrial damage are often associated with the induction of cell death. […] DCF fluorescence was then measured by flow cytometry. The difference in the percentage of DCF-positive cells between treated and control cells was used to indicate an increase in intracellular ROS, as shown in Figure 4.
Reactive oxygen species (ROS) production was measured using flow cytometry. Cells were treated with compounds (each with respective IC50 values) for 24 h, with untreated cells serving as the negative control and cells treated with 1 µM daunorubicin as the positive control. Following the treatment, intracellular ROS levels were visualized after incubation with 2′,7′-dichlorodihydro-fluorescein diacetate (DCFH2-DA) at a final concentration of 10 μM for the last 30 min of the treatment period. After incubation, the cells were washed with PBS, trypsinized, and centrifuged, and the resulting pellet was resuspended in PBS and immediately examined by flow cytometry.
Figure 4 The effect of the compound’s treatment on intracellular ROS generation. Cells were treated with compounds (respective IC50 values for each compound for 24 h), and intracellular ROS levels were determined in the human cancer cell line MCF-7 by flow cytometry using dichloro-fluorescein diacetate (DCFH2-DA). * p < 0.05 versus control cells (Ctrl). The data represent the means ± S.D. of at least three experiments with triplicate samples.

MCF-7 cells [3] = assay: Mitochondrial membrane potential (rhodamine 123, flow cytometry); conditions: MCF-7, compounds at respective IC50, 24 h
Procedure: To determine whether the toxic effects of selected sesquiterpenes (10c, 11c, 12c, 13c, and 14c) are due to the production of ROS and subsequent apoptosis, the mitochondrial membrane potential was measured. With this aim, a protocol using rhodamine 123 staining and flow cytometry was established to study the effect of the selected compounds [40]. The accumulation of rhodamine 123 in mitochondria is associated with the maintenance of the electrochemical gradient in mitochondria. Daunorubicin was used as a positive control (C+). The results are presented as the percentage of cells with increased mitochondrial membrane permeability.
Rhodamine 123 (Rho123), a positively charged dye that reacts to voltage changes and enters the mitochondria, was utilized to detect modifications in the mitochondrial membrane potential. The cells were exposed to specific compounds (IC50 values for each compound) for 24 h. Control cells that had not been treated were used as negative control, while cells treated with daunorubicin at a concentration of 1 µM served as the positive control. Following this, the cells were incubated with Rho123 (at a concentration of 1 µM) in darkness for an hour at 37 °C. Afterward, the medium was taken out, and the cells were washed with PBS. The cells were then dissociated using trypsin and collected through centrifugation for 10 min at 1500×g. The supernatant was thrown away, and the cell pellets were resuspended in PBS and analyzed using flow cytometry with the FL1 filter. The results are shown as the percentage of Rho123-stained cells.
Figure 5 The effect of the compound’s treatment on mitochondrial membrane potential. […] The data represent the means ± S.D. of at least three experiments with triplicate samples.

SMILES | IC50 (MCF-7 cells [1]) [µM] | Selectivity Index (SI) (MCF-7 cells [1]) | IC50 (MCF-10 cells) [µM] | intracellular ROS levels (DCF fluorescence) (MCF-7 cells [2]) | mitochondrial membrane permeability (MCF-7 cells [3])
COc1ccc(/C=C2\C(C)=CCC3C(C)(C)CCC[C@]23C)cc1OC (stereo partly drawn) [Compound 13c, (4aS)-5-((E)-3,4-Dimethoxybenzylidene)-1,1,4a,6-tetramethyl-1,2,3,4,4a,5,8,8a-octahydronaphthalene] | 22.5 ± 2.6 | 6.0 | 135 ± 26.6 | significantly increased | did not increase
COc1cc2c(cc1OC)[C@]1(C)CCC3C(C)(C)CCC[C@]3(C)C1=C2 (stereo partly drawn) [Compound 14c, (6aR,11bS)-8,9-Dimethoxy-4,4,6a,11b-tetramethyl-2,3,4,4a,5,6,6a,11b-octahydro-1H-benzo[a]fluorene] | 9 ± 2.8 | 44 | 393 ± 47.1 | induced oxidative stress; also recorded: significantly increased | did not increase
